Among the data in ChEMBL document CHEMBL1130601, “Design and synthesis of 2-cyano-3,12-dioxoolean-1,9-dien-28-oic acid, a novel and highly active inhibitor of nitric oxide production in mouse macrophages” (Bioorg Med Chem Lett, 1998) are IC50 values, retold here.

What all share (format): functional, organism-based
The species named for assay [1] is Mus musculus. Put plainly: Compound was evaluated for inhibitory activity against production of nitric oxide (NO) induced by interferon-gamma (IFN-gamma) in mouse macrophages at a concentration of 0.1-1 uM.
The species named for assay [2] is Mus musculus. Put plainly: Compound was evaluated for inhibitory activity against production of nitric oxide (NO) induced by interferon-gamma (IFN-gamma) in mouse macrophages.
The species entered for assay [3] is Mus musculus. Put plainly: Compound was evaluated for inhibitory activity against production of nitric oxide (NO) induced by interferon-gamma (IFN-gamma) in mouse macrophages at a concentration of 0.01-40 uM.
For assay [4], the species on record is Mus musculus. Put plainly: Compound was evaluated for inhibitory activity against production of nitric oxide (NO) induced by interferon-gamma (IFN-gamma) in mouse macrophages at a concentration of 0.01-40 uM; Toxic above 1 uM and not active below 1 uM.

Usually IC50 stands for the midpoint of a concentration-inhibition curve. In turn, `CC1(C)CC[C@]2(C(=O)O)CC[C@]3(C)[C@H](C(=O)C=C4[C@@]5(C)C=C(C#N)C(=O)C(C)(C)[C@@H]5CC[C@]43C)[C@@H]2C1` [BARDOXOLONE] gave an IC50 in assay [1] of 0.4 nM.
In assay [2], `CC1(C)CC[C@]2(C(=O)O)CC[C@]3(C)C(=CC[C@@H]4[C@@]5(C)CC[C@H](O)C(C)(C)[C@@H]5CC[C@]43C)[C@@H]2C1` [OLEANOLIC_ACID] yielded an IC50 above 40000 nM.
`CC1(C)CC[C@]2(C(=O)O)CC[C@]3(C)[C@H](C(=O)C=C4[C@@]5(C)C=CC(=O)C(C)(C)[C@@H]5CC[C@]43C)[C@@H]2C1` registered an IC50 in assay [3] of 170 nM.
Turning to `CC1(C)CC[C@]2(C(=O)O)CC[C@]3(C)C(=CC[C@@H]4[C@@]5(C)C=CC(=O)C(C)(C)[C@@H]5CC[C@]43C)C2C1` (stereo not given in full), the IC50 in assay [3] was determined as 7100 nM.
With `COC1=C[C@]2(C)[C@H]3CC=C4C5CC(C)(C)CC[C@]5(C(=O)O)CC[C@@]4(C)[C@]3(C)CC[C@H]2C(C)(C)C1=O` (stereo not given in full), in assay [3], the IC50 is 19000 nM.
In the case of `CC1(C)CC[C@]2(C(=O)O)CC[C@]3(C)C(=CC[C@@H]4[C@@]5(C)C=C(C#N)C(=O)C(C)(C)[C@@H]5CC[C@]43C)C2C1` (stereo not given in full), it took 600 nM to reach half-maximal inhibition in assay [3] (IC50).
`C[C@@H]1C[C@H]2[C@@H]3CCC4=CC(=O)C=C[C@]4(C)[C@@]3(F)[C@@H](O)C[C@]2(C)[C@@]1(O)C(=O)CO` [DEXAMETHASONE] yielded an IC50 in assay [2] of 0.3 nM.
`CC1(C)CC[C@]2(C(=O)O)CC[C@]3(C)C(=CC(=O)[C@@H]4[C@@]5(C)C=CC(=O)C(C)(C)[C@@H]5CC[C@]43C)C2C1` (stereo not given in full): the IC50 in assay [3] was 1400 nM.
As to `CC1(C)CC[C@]2(C(=O)O)CC[C@]3(C)C(=CC[C@@H]4[C@@]5(C)C=C(C=O)C(=O)C(C)(C)[C@@H]5CC[C@]43C)C2C1` (stereo not given in full), the IC50 in assay [4] is above 1000 nM.
Turning to `CC1(C)CC[C@]2(C(=O)O)CC[C@]3(C)C(=CC[C@@H]4[C@@]5(C)C=C(O)C(=O)C(C)(C)[C@@H]5CC[C@]43C)C2C1` (stereo not given in full), in assay [3], the IC50 was determined as 37000 nM.
